Structures can show the parent of a compound that is named as a salt.
How the values were obtained:
[1] = system: patients with orofacial muscle (myofascial) pain, masseter muscle tender points; experiment: VAS pain at maximal mouth opening after intramuscular tender point injection; format: in vivo, human
Experimental: Ropivacaine hydrochloride 7.5 mg/ml solution for injection was used (Naropin®, Astra AB, Sweden). Ropivacaine was administered as a single dose intra-muscular tender point (TP) injection. Injection by means of one needle insertion per tender point was preceded by aspiration before infiltrating the study drug over the entire tender area. A standard disposable syringe with a 0.4 mm diameter needle was used. Injection rate was about 1 ml/30 sec. Injections were made at one occassion at a visit to the clinic. Follow-up data were obtained at a study end visit to the clinic 1 week after the injection. Ten patients (5 men and 5 women) whose age varied from 19 years to 69 years (mean 42.9 years of age) were included in this test. The duration of complaints ranged from 1 month up to 10 years (mean 26.5 months). All patients were subjected to unilateral injections of ropivacaine into tender points of the masseter muscle. Three patients received 1 ml, 5 patients received 2 ml, 1 patient received 3 ml and 1 patient received 4 ml of the study drug. (i) Pain on maximal mouth opening The patient rated their pain on a 100 mm visual analogue scale (VAS). On the VAS, 0 represents “no pain” and 100 represents “worst pain imaginable”. The primary efficacy variable was VAS pain score at maximal mouth opening. The patient was asked to open the mouth as much as possible and then they rated the experienced pain.

[2] = system: patients with orofacial muscle (myofascial) pain, masseter muscle tender points; experiment: Frequency of pain episodes / freedom from muscular pain at follow-up; format: in vivo, human
Experimental: (§1) Ropivacaine hydrochloride 7.5 mg/ml solution for injection was used (Naropin®, Astra AB, Sweden). Ropivacaine was administered as a single dose intra-muscular tender point (TP) injection. Injection by means of one needle insertion per tender point was preceded by aspiration before infiltrating the study drug over the entire tender area. A standard disposable syringe with a 0.4 mm diameter needle was used. Injection rate was about 1 ml/30 sec. Injections were made at one occassion at a visit to the clinic. Follow-up data were obtained at a study end visit to the clinic 1 week after the injection. A case history information including the duration of the present orofacial muscle pain was collected. A clinical examination of the orofacial region including digital palpation of the temporomandibular joints and masticatory muscles. Ten patients (5 men and 5 women) whose age varied from 19 years to 69 years (mean 42.9 years of age) were included in this test. The duration of complaints ranged from 1 month up to 10 years (mean 26.5 months). All patients were subjected to unilateral injections of ropivacaine into tender points of the masseter muscle. Three patients received 1 ml, 5 patients received 2 ml, 1 patient received 3 ml and 1 patient received 4 ml of the study drug.

[3] = system: patients with orofacial muscle (myofascial) pain, masseter muscle tender points; experiment: VAS pain at rest (jaw at rest) after intramuscular tender point injection; format: in vivo, human
Experimental: as §1, with “injection.” for “injection. A case history information including the duration of the present orofacial muscle pain was collected. A clinical examination of the orofacial region including digital palpation of the temporomandibular joints and masticatory muscles.”, “drug. (ii) Pain at rest The non-functional pain (jaw at rest) was also assessed by the patient on the VAS scale. This parameter was rated before the rating of pain on maximal mouth opening.” for “drug.”

[4] = system: patients with myofascial pain syndrome (MPS); settings: bupivacaine 0.25%, lignocaine 1%, local injection, 107 patients; cited from earlier work

| SMILES | Pain at maximal jaw opening, 100 mm VAS, Follow-up, Max ([1]; 10 patients, 7.5 mg/ml single i.m. injection, follow-up 1 week, baseline max 95) [mm] | Pain at maximal jaw opening, 100 mm VAS, Follow-up, Mean ([1]; 10 patients, 7.5 mg/ml single i.m. injection, follow-up 1 week, baseline mean 59.3, S.D. 32.34) [mm] | Pain at maximal jaw opening, 100 mm VAS, Follow-up, Min ([1]; 10 patients, 7.5 mg/ml single i.m. injection, follow-up 1 week, baseline min 8) [mm] | Pain at maximal jaw opening, 100 mm VAS, Follow-up, Median ([1]; 10 patients, 7.5 mg/ml single i.m. tender point injection (1-4 ml), follow-up 1 week, baseline median 59.5) [mm] | VAS rated pain at maximal mouth opening, change as a result of the treatment ([1]; baseline vs follow-up 1 week, result in words) | Patients who became free or almost free of their muscular pain ([2]; FIG. 1, 10 patients treated) | Patients with pain at one occasion during the week prior to follow-up ([2]; of 10 patients) [patient] | Patients with pain several times a week or every day at follow-up ([2]; of 10 patients) [patients] | Patients with not a single episode with pain during the week prior to follow-up ([2]; of 10 patients, at baseline 2 had pain every day, 8 several times per week) [patients] | Pain at rest, 100 mm VAS, Follow-up, Max ([3]; 10 patients, 7.5 mg/ml single i.m. injection, follow-up 1 week, baseline max 89) [mm] | Pain at rest, 100 mm VAS, Follow-up, Mean ([3]; 10 patients, 7.5 mg/ml single i.m. injection, follow-up 1 week, baseline mean 33.3) [mm] | Pain at rest, 100 mm VAS, Follow-up, Median ([3]; 10 patients, 7.5 mg/ml single i.m. injection, follow-up 1 week, baseline median 19.5) [mm] | Pain at rest, 100 mm VAS, Follow-up, Min ([3]; 10 patients, 7.5 mg/ml single i.m. injection, follow-up 1 week, baseline min 3) [mm] | Pain at rest, change as the result of the treatment ([3]; baseline vs follow-up, result in words) | Effect on pain compared between bupivacaine, lignocaine and saline [4] |
| --- | --- | --- | --- | --- | --- | --- | --- | --- | --- | --- | --- | --- | --- | --- | --- |
| CCCN1CCCC[C@H]1C(=O)Nc1c(C)cccc1C [ropivacaine, (S)-(−)-i-propyl-2′,6′-pipecoloxylidide hydrochloride] | 75 | 27.3 | 0 | 6 | dramatic reduction | 6 out of the 10 | 1 | 3 | 6 | 16 | 3.7 | 3.5 | 0 | decreased significantly | – |
| CCCCN1CCCCC1C(=O)Nc1c(C)cccc1C (stereo not shown) [bupivacaine] | – | – | – | – | – | – | – | – | – | – | – | – | – | – | No significant difference |
| CCN(CC)CC(=O)Nc1c(C)cccc1C [lignocaine] | – | – | – | – | – | – | – | – | – | – | – | – | – | – | No significant difference |

Reference: patent US6620423B2, “Use for pain management” (AstraZeneca AB, priority 1998, dated 2003)
